Here are results for three compounds from US12421206B2, “Aryl-n-aryl derivatives for treating a RNA virus infection” (ABIVAX, priority 2018, dated 2025).

Experiment [1] relates to Chikungunya Virus (CHIKV) strain LR2006-OPY1 with GFP modification (CHIK 5'LR). As to the kind of experiment: microbe, parasite or virus in culture. The experiment is classed as cell-based. The conditions noted are these: HEK-293T, compounds at 1 μM, infected HEK293T cells, MOI 0.1, 22 h, mean of 2 experiments, values above 100 lowered to 100, read-out: % CHIKV Inhibition Mean (n = 2). As to the method: The ability of the compounds to inhibit viral replication was assessed with an experiment in which infected cells were treated by compounds of formula (Ie) at 1 μM. As a positive control for inhibition of Chikungunya, Ribavirin was used. Toxicity of the compounds was assessed in parallel.
Human embryonic kidney cells 293T (HEK293T, CRL-11268) were maintained in Dulbecco's modified Eagle's Medium (DMEM, 31966-021, Thermo Fisher Scientific) supplemented with 10% of fetal bovine serum (FBS), penicillin and streptomycin. After removal of the medium, cells were washed with Ca^2+ and Mg^2+-free salt solution to remove all traces of serum. After aspiration of wash solution, cells were dissociated with 0.25% Trypsin-EDTA solution and incubated 30 s at least in 37° C. incubator. Concentration of cell suspension was determined by an automatic cell counter (EVE, NanoEntek) and, if needed, adjusted to 0.33×10^6 cells/mL with DMEM medium supplemented with 10% FBS.
100 μL of the cell suspension were dispatched in a ViewPlate-96 Black (6005182, PerkinElmer) and in a transparent 96-well cell culture plate (655180, Greiner bio-one). After an incubation for 24 h at 37° C. under 5% of CO2, compounds were added at the proper concentration.
An intermediate dilution was prepared with DMSO (D8418, Sigma) at 2 mM in a 96-well V-bottom microplate from the stock solution:
Mix 1 μL of the 50 mM stock library in 25 μL of DMSO.
Mix 2 μL of the 25 mM stock library in 25 μL of DMSO.
An intermediate dilution was prepared with DMSO (D8418, Sigma) at 25 mM in a 96-well V-bottom microplate from the stock solution:
Mix 2 μL of the 50 mM stock library in 2 μL of DMSO.
Perform serial dilution in 2 μL of DMSO 13 times to reach 0.0015 mM. Proceed as follows in table III:
For both screen and determination of IC50, 1 μL of each solution was added in a 1 mL Masterblock 96 wells (Greiner bio-one, 780261) containing 1 mL of DMEM medium. As a positive control, 5 μL of a 80 mM Ribavirin solution (R9644, Sigma) is added to 1 mL of DMEM. On the other hand, DMSO is used as a negative control.
[…]. Vector Borne Zoonotic Dis. 2006; 6(4)). This modified virus was used to infect cells at MOI 0.1. […].
Medium was removed after 22 h at 37° C. under 5% of CO2 and cells were washed as described above. 60 μL of RIPA buffer (50 mM Tris-HCl pH8, 100 mM NaCl, 1 mM MgCl2, 1% Triton X-100) was added to cells and incubated for at least 20 min before reading fluorescence signal. Pierce 660 nm Protein Assay Reagent (22660, Thermo scientific) was used to normalize fluorescence signal by protein quantity.
• A first round of experiments has been performed wherein the results are expressed as inhibition percentage, which is calculated as follows, through the following steps: • 1. Fluorescence intensity (FI)/Absorbance 660 nm (A660)=A
This ratio allows considering the infection (GFP virus) to the protein amount. • 2. A′=A−background noise of non-infected plate, • 3. B=Fluorescence intensity (FI)/Absorbance 660 nm (A660) of infected but non treated plates, • 4. C=A′/B, which is then converted as the percentage of infection after treatment, compared to non-treated sample, and subsequently as the infection percentage. For instance, a value of 100 in Table IV here below means that, after treatment, the signal attributed to GFP fluorescence is abolished, which is correlated to the absence of infection. • 5. C′=100−C
This value corresponds to the inhibition's percentage.
The following Table IV encompasses said C′ value for some compounds, as calculated above with a mean of 2 experiments, and corresponding standard deviation.
Some values were originally above 100. In these cases, the value has been lowered to 100. This means that some molecules also have an impact on the viability of the cells. In other words, the A value may be lower than the background noise.
Moreover, for each measure, the test was performed with Ribavirin as control. The value of the inhibition percentage was checked, giving 100%.

For a further experiment, the system named is DENV-2 strain 16681. Description: DENV-2 inhibition (cytopathic effect inhibition) using Viral ToxGlo assay in A549 cells. The experiment is classed as cell-based, Dengue 2 virus. As to conditions: Dengue virus, DENV2, 120 h, compounds at 10 μM, MOI 0.5, 5 days p.i., read-out: % DENV-2 Inhibition Mean (n = 3). On the procedure: Protocol for Screening Antiviral Compounds for DENV-2 Inhibition and Cytotoxicity Using Viral ToxGlo Assay
A549 cells were maintained in Dulbecco's Modified Eagle Medium (DMEM) supplemented with 10% fetal bovine serum, 100 U/ml penicillin and 100 μg/ml streptomycin. For the purposes of the screening assay they were grown to 90% confluency, trypsinized and recovered. The trypsin was neutralised with cell culture media and cells were centrifuged at 150×g for 5 minutes before discarding the supernatant and resuspending cell pellet in assay media (DMEM supplemented with 2% fetal bovine serum and 100 U/ml penicillin and 100 μg/ml streptomycin). The cells were seeded into 96-well white clear-bottomed cell culture plates at a density of 1.0×10^4 cells/well in 50 μl. For the media/background control column assay media only was added. Cell plates were placed in a humid chamber and incubated overnight at 37° C./5% CO2. After overnight incubation cells were checked for confluency and healthy appearance.
Test compounds were prepared at a final concentration of 10 μM in a maximum DMSO concentration of 1% (final assay concentration maximal 0.1% DMSO) and added to the cell plates in volumes of 10 μl. For cell control and virus control wells the test article solvent only was added. As a positive inhibition control, 7-Deaza-2′-C-methyladenosine was added at 100 μM in 3 wells. Virus (DENV-2 strain 16681) or assay media for cytotoxicity test wells and media/cell control wells was added immediately after test articles at an MOI of 0.5, 40 for 96 well plates respectively. Virus suspension was prepared by thawing DENV-2 frozen stocks and diluting to the required concentration of plaque forming units in assay media.
Cell plates were further incubated inside a humid chamber for 5 days p.i at 37° C./5% CO2. After the incubation period cells were observed under the microscope to check for characteristic cytopathic effect in virus control wells and healthy cells in the cell control wells. After plates were adjusted to room temperature 20 μl Viral ToxGlo (Promega) was added to each well of the 96-well cell plates. Plates were incubated at room temperature for 5 minutes before measuring the luminescence on a spectrophotometer (Envision, PerkinElmer).
DENV-2 inhibition was calculated as percentage of cytopathic effect inhibition relative to the virus control and cytotoxicity as percentage of cell survival relative to cell control wells.

On to `Cc1cc(Nc2cccc(C(=O)NCCC3CCCC3)c2)ccc1OCc1ccccn1` [Compound 40, N-(2-cyclopentylethyl)-3-((3-methyl-4-(pyridin-2-ylmethoxy)phenyl)amino)benzamide], for which the inhibition – broadly, the change of the read-out against control, counted positive when it falls – at 1 µM in experiment [1] stood at 99%. Moreover, the inhibition at 10 µM in the experiment on DENV-2 strain 16681 is 71%.

As for `O=C(NCCC1CCC1)c1cccc(Nc2ccc(OCc3ccccn3)cc2)c1` [Compound 48, N-(2-cyclobutylethyl)-3-((4-(pyridin-2-ylmethoxy)phenyl)amino)benzamide], the inhibition at 1 µM in experiment [1] is 98%. Further, the inhibition at 10 µM in the experiment with DENV-2 strain 16681 amounted to 110%.

On to `O=C(NCCC1CC1)c1cccc(Nc2ccc(OCc3ccccn3)cc2)c1` [Compound 49, N-(2-cyclopropylethyl)-3-((4-(pyridin-2-ylmethoxy)phenyl)amino)benzamide], for which the inhibition at 1 µM in experiment [1] was found to be 98%. For the same compound, in the experiment on DENV-2 strain 16681, the inhibition at 10 µM stood at 111%.
